Measurements published in article PMC6155732, “Development of a UPLC-TQ/MS Approach for the Determination of Eleven Bioactive Components in Haizao Yuhu Decoction Plus-Minus Haizao and Gancao Drug Combination after Oral Administration in a Rat Model of Hypothyroidism” (Molecules : A Journal of Synthetic Chemistry and Natural …, 2016).

Key:
[1] = Pharmacokinetics of compounds 1–11 in rat plasma (UPLC-TQ/MS) after oral administration of HYD and plus-minus Haizao/Gancao decoctions; type: in vivo, Wistar rats (PTU-induced model of hypothyroidism); conditions: Wistar, model rats, n = 6, mean ± S.D.
Description: Plasma samples (200 μL) and IS solution (50 μL, 1215 ng/mL for diphenhydramine, 476 ng/mL for chloromycetin) were added to an Eppendorf tube, and this mixture was extracted with methanol (550 μL) by shaking on a vortex-mixer for 2 min, and centrifuged for 10 min at 13,000 rpm. The contents were evaporated to dryness in a rotary evaporator at 37 °C. The residue was reconstituted in methanol (100 μL) and centrifuged (13,000 rpm for 10 min). The supernatant was transferred to an autosample vial and an aliquot of 5 μL was injected onto the UPLC-MS/MS system for analysis.
The developed and validated method was used to evaluate the pharmacokinetics of the eleven compounds after oral administration of different fractions in […] (Figure 3). […] The pharmacokinetic parameters including half-life (T1/2), maximum plasma concentration (Cmax), time to reach the maximum concentration (Tmax), and area under concentration–time curve (AUC0~t) were calculated by a non-compartment model and are shown in Table 6.
A considerable increase in thyroid stimulating hormone (TSH) and decrease in triiodothyronine (T3) and tetraiodothyronine (T4) in serum are considered to be markers of successful hypothyroid rat model preparation. PTU is the classic drug used to replicate hypothyroidism in rat models. It is generally thought that PTU can decrease the level of thyroid hormone in a hypothyroid rat model by inhibiting the activity of TPO [31, 32]. Model Wistar rats were administered PTU intragastrically at a dose of 10 mg/kg (QD) for 2 weeks to establish hypothyroidism. Serum from model rats was collected on the last day of PTU administration and the T3, T4 and TSH levels were determined using test kits. Wistar rats with a considerable increase in […] and a decrease in serum T3 and T4 were considered to have hypothyroidism and were selected for subsequent pharmacokinetic studies.
For the pharmacokinetic studies, model Wistar rats were divided into six groups (n = 6 per group). Rats in the model HYD groups were administered HYD at a dose of 12 mL/kg intragastrically. In the model HYD-GC groups, HYD-GC (11 mL/kg) was administered. In the model HYD-HZ groups, HYD-HZ (11 mL/kg) was administered. In the model HYD-GC-HZ groups, HYD-GC-HZ (10 mL/kg) was administered. In the model GH groups, GH (2 mL/kg) was administered. In the model GC groups, GC (1 mL/kg) was administered. Blood samples were collected at specific time points before (0 min) and after oral administration (5, 10, 20, 40, 60, 120, 240, 480, 720, 1440 min). A total of 360 blood samples were collected. All blood samples were immediately centrifuged at 2500 rpm for 10 min to obtain plasma, which was labeled and frozen at −80 °C until analysis. Blank plasma was obtained from the rats without oral administration and was used to investigate the assay development and validation.
To determine the pharmacokinetic parameters of compounds 1–11 in different groups, concentration–time data were analyzed by DAS 3.2 software (Mathematical Pharmacology Professional Committee of China, Shanghai, China, 2011). Data were expressed as the mean and standard deviation (S.D.) with triplicate measurements. The identification of significant differences between different groups was carried out using the Student’s t-test. A p value < 0.05 was considered statistically significant.

CYP2C19 = system: CYP2C19; design: method as in PMID 21462897; conditions: cited from earlier work
CYP2C9 = system: CYP2C9; design: method as in PMID 21462897; conditions: cited from earlier work
CYP3A4 = system: CYP3A4; design: method as in PMID 21462897; conditions: cited from earlier work
[2] = 1 mL/kg, group GC (extract of Gancao), 1 mL/kg intragastrically
[3] = 2 mL/kg, group GH (extract of Gancao and Haizao), 2 mL/kg intragastrically
[4] = 11 mL/kg, group HYD-HZ (HYD minus Haizao), 11 mL/kg intragastrically
[5] = 12 mL/kg, group HYD, 12 mL/kg intragastrically
[6] = 10 mL/kg, group HYD-GH (HYD minus Gancao and Haizao; HYD-GC-HZ), 10 mL/kg intragastrically
[7] = 11 mL/kg, group HYD-GC (HYD minus Gancao), 11 mL/kg intragastrically

| AUC(0-t) [1, 2] | Cmax [1, 2] | Tmax [1, 2] | half-life [1, 2] | AUC(0-t) [1, 3] | Cmax [1, 3] | Tmax [1, 3] | half-life [1, 3] | AUC(0-t) [1, 4] | Cmax [1, 4] | Tmax [1, 4] | half-life [1, 4] | AUC(0-t) [1, 5] | Cmax [1, 5] | Tmax [1, 5] | half-life [1, 5] | AUC(0-t) [1, 6] | Cmax [1, 6] | Tmax [1, 6] | half-life [1, 6] | Structure (SMILES) | also measured |
| --- | --- | --- | --- | --- | --- | --- | --- | --- | --- | --- | --- | --- | --- | --- | --- | --- | --- | --- | --- | --- | --- |
| 229 ± 119 ng·h/mL | 147 ± 37.7 ng/mL | 0.67 h | 0.99 ± 0.34 h | 2510 ± 814 ng·h/mL | 254 ± 122 ng/mL | 0.17 h | 1.34 ± 1.48 h | 987 ± 567 ng·h/mL | 494 ± 165 ng/mL | 0.31 ± 0.07 h | 3.66 ± 3.3 h | 1760 ± 287 ng·h/mL | 1600 ± 595 ng/mL | 0.19 ± 0.11 h | 9.23 ± 5.85 h | – | – | – | – | O=C1C[C@@H](c2ccc(O[C@@H]3O[C@H](CO)[C@@H](O)[C@H](O)[C@H]3O)cc2)Oc2cc(O)ccc21 [Compound 1, liquiritin] | – |
| – | – | – | – | – | – | – | – | 1060 ± 244 ng·h/mL | 463 ± 194 ng/mL | 0.5 ± 0.18 h | 2.59 ± 2.02 h | 912 ± 198 ng·h/mL | 612 ± 200 ng/mL | 0.17 ± 0.09 h | 11.3 ± 4.86 h | 565 ± 352 ng·h/mL | 424 ± 188 ng/mL | 0.15 ± 0.1 h | 1.23 ± 0.15 h | C[C@@H]1O[C@@H](O[C@H]2[C@H](Oc3cc(O)c4c(c3)O[C@H](c3ccc(O)cc3)CC4=O)O[C@H](CO)[C@@H](O)[C@@H]2O)[C@H](O)[C@H](O)[C@H]1O [Compound 2, naringin] | AUC(0-t) [1, 7]: 561 ± 278 ng·h/mL; Cmax [1, 7]: 271 ± 75.4 ng/mL; Tmax [1, 7]: 0.19 ± 0.07 h; half-life [1, 7]: 1.12 ± 0.28 h |
| 1000 ± 946 ng·h/mL | 220 ± 47.4 ng/mL | 2.5 ± 1.73 h | 2.41 ± 1.57 h | 681 ± 771 ng·h/mL | 211 ± 70.3 ng/mL | 1.5 ± 1.23 h | 4.12 ± 3.73 h | 2150 ± 629 ng·h/mL | 276 ± 66.5 ng/mL | 0.79 ± 1.58 h | 3.94 ± 0.59 h | – | 358 ± 91.9 ng/mL | 2.75 ± 4.07 h | 4.05 ± 0.77 h | – | – | – | – | O=C1C[C@@H](c2ccc(O)cc2)Oc2cc(O)ccc21 [Compound 6, liquiritigenin] | – |
| – | – | – | – | – | – | – | – | 649 ± 132 ng·h/mL | 192 ± 54.5 ng/mL | 0.81 ± 0.34 h | 1.92 ± 1.75 h | 819 ± 25.7 ng·h/mL | 227 ± 57.8 ng/mL | 0.33 ± 0.21 h | 1.56 ± 1.02 h | 786 ± 369 ng·h/mL | 125 ± 35.6 ng/mL | 0.11 ± 0.04 h | 9.6 ± 10.6 h | COc1c2ccoc2cc2oc(=O)ccc12 [Compound 8, bergapten] | AUC(0-t) [1, 7]: 470 ± 130 ng·h/mL; Cmax [1, 7]: 183 ± 47 ng/mL; Tmax [1, 7]: 0.61 ± 0.14 h; half-life [1, 7]: 1.17 ± 0.1 h |

Second part, the compound before the results:

| Structure (SMILES) | AUC(0-t) [1, 2] | Cmax [1, 2] | Tmax [1, 2] | half-life [1, 2] | AUC(0-t) [1, 3] | Cmax [1, 3] | Tmax [1, 3] | half-life [1, 3] | AUC(0-t) [1, 4] | Cmax [1, 4] | Tmax [1, 4] | half-life [1, 4] | AUC(0-t) [1, 5] | Cmax [1, 5] | Tmax [1, 5] | half-life [1, 5] | AUC(0-t) [1, 6] | Cmax [1, 6] | Tmax [1, 6] | half-life [1, 6] | also measured |
| --- | --- | --- | --- | --- | --- | --- | --- | --- | --- | --- | --- | --- | --- | --- | --- | --- | --- | --- | --- | --- | --- |
| CC1(C)[C@@H](O[C@H]2O[C@H](C(=O)O)[C@@H](O)[C@H](O)[C@H]2O[C@@H]2O[C@H](C(=O)O)[C@@H](O)[C@H](O)[C@H]2O)CC[C@]2(C)[C@H]3C(=O)C=C4[C@@H]5C[C@@](C)(C(=O)O)CC[C@]5(C)CC[C@@]4(C)[C@]3(C)CC[C@@H]12 [Compound 7, glycyrrhizic acid] | 1760 ± 1430 ng·h/mL | 607 ± 137 ng/mL | 1.25 ± 0.5 h | 4.47 ± 2.63 h | 3600 ± 1840 ng·h/mL | 1350 ± 322 ng/mL | 0.56 ± 0.4 h | 9.94 ± 8.89 h | 587 ± 261 ng·h/mL | 587 ± 261 ng/mL | 0.67 ± 0.42 h | 1.84 ± 1.82 h | 1690 ± 639 ng·h/mL | 1370 ± 712 ng/mL | 0.292 ± 0.1 h | 1.58 ± 1.01 h | – | – | – | – | – |
| COc1ccc(-c2cc(=O)c3c(OC)c(OC)c(OC)c(OC)c3o2)cc1OC [Compound 9, nobiletin] | – | – | – | – | – | – | – | – | 2290 ± 55.5 ng·h/mL | 322 ± 88.2 ng/mL | 0.19 ± 0.07 h | 16.2 ± 7.06 h | 2870 ± 285 ng·h/mL | 1000 ± 178 ng/mL | 0.67 h | 6.03 ± 1.95 h | 1180 ± 539 ng·h/mL | 311 ± 126 ng/mL | 0.46 ± 0.37 h | 3.26 ± 3.53 h | AUC(0-t) [1, 7]: 2010 ± 1020 ng·h/mL; Cmax [1, 7]: 501 ± 183 ng/mL; Tmax [1, 7]: 0.89 ± 0.27 h; half-life [1, 7]: 4.53 ± 1.89 h |
| COc1ccc2ccc(=O)oc2c1CC=C(C)C [Compound 10, osthole] | – | – | – | – | – | – | – | – | 295 ± 117 ng·h/mL | 295 ± 117 ng/mL | 0.61 ± 0.25 h | 1.45 ± 1.11 h | 748 ± 225 ng·h/mL | 458 ± 184 ng/mL | 0.61 ± 0.14 h | 1.25 ± 0.03 h | 98.5 ± 41 ng·h/mL | 69.2 ± 25.6 ng/mL | 0.53 ± 0.31 h | 0.68 ± 0.49 h | AUC(0-t) [1, 7]: 205 ± 94.7 ng·h/mL; Cmax [1, 7]: 101 ± 31.9 ng/mL; Tmax [1, 7]: 0.39 ± 0.14 h; half-life [1, 7]: 1.54 ± 0.51 h |
| CC1(C)[C@@H](O)CC[C@]2(C)[C@H]3C(=O)C=C4[C@@H]5C[C@@](C)(C(=O)O)CC[C@]5(C)CC[C@@]4(C)[C@]3(C)CC[C@@H]12 [Compound 11, glycyrrhetinic acid] | 10500 ng·h/mL | 776 ± 184 ng/mL | 10 ± 2.31 h | 4.66 ± 5.33 h | 22800 ng·h/mL | 1250 ± 210 ng/mL | 12.7 ± 5.89 h | 1.93 ± 0.04 h | 12700 ng·h/mL | 756 ± 58.1 ng/mL | 12 h | 1.99 ± 0.03 h | 9990 ± 1660 ng·h/mL | 504 ± 101 ng/mL | 9.33 ± 2.07 h | 3.01 ± 2.35 h | – | – | – | – | inhibitory potencies on CYP2C19 enzyme activity (CYP2C19): up to 50%; inhibitory potencies on CYP2C9 enzyme activity (CYP2C9): up to 50%; inhibitory potencies on CYP3A4 enzyme activity (CYP3A4): up to 50% |
